Measured values: ChEMBL document CHEMBL2407081, “Discovery of potent, isoform-selective inhibitors of histone deacetylase containing chiral heterocyclic capping groups and a N-(2-aminophenyl)benzamide binding unit” (J Med Chem, 2013)

Assays:
Histone deacetylase 8 = target: T1, Histone deacetylase 8 (Homo sapiens, UniProt Q9BY41); test: Inhibition of recombinant HDAC8 (unknown origin) expressed in Escherichia coli BL21 using MAL as substrate incubated for 15 mins prior to substrate addition measured after 60 mins by fluorescence plate reader analysis
T1 sequence (Q9BY41 whole entry): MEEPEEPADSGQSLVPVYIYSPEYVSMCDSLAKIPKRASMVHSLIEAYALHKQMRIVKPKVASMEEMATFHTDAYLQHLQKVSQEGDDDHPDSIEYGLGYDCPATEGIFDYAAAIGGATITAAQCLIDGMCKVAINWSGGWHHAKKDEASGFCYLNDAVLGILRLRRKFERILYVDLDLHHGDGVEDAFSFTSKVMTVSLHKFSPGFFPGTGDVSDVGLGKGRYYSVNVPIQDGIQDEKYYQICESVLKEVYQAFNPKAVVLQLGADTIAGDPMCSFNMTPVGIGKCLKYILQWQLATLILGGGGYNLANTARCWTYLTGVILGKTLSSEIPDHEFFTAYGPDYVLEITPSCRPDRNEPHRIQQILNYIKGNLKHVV

[1] = target: Histone deacetylase 3/NCoR1 (Homo sapiens, UniProt O15379); test: Inhibition of recombinant HDAC3-NCoR1 (unknown origin) using MAL as substrate incubated for 3 hrs prior to substrate addition measured after 60 mins by fluorescence plate reader analysis; assay type: protein-complex assay
Sequence of Histone deacetylase 3/NCoR1 (O15379 whole entry): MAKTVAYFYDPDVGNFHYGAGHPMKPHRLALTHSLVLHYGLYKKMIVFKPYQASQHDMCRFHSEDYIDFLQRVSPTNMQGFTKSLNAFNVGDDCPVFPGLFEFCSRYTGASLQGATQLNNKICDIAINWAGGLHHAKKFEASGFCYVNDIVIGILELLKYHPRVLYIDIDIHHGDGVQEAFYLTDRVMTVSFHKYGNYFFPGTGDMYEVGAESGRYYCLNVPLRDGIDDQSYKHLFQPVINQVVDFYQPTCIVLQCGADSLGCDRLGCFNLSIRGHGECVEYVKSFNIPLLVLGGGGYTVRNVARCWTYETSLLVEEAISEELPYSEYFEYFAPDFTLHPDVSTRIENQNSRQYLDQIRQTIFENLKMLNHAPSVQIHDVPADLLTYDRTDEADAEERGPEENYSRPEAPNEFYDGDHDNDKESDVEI
Sequence of Histone deacetylase 3/NCoR1 (O75376 whole entry, further chain): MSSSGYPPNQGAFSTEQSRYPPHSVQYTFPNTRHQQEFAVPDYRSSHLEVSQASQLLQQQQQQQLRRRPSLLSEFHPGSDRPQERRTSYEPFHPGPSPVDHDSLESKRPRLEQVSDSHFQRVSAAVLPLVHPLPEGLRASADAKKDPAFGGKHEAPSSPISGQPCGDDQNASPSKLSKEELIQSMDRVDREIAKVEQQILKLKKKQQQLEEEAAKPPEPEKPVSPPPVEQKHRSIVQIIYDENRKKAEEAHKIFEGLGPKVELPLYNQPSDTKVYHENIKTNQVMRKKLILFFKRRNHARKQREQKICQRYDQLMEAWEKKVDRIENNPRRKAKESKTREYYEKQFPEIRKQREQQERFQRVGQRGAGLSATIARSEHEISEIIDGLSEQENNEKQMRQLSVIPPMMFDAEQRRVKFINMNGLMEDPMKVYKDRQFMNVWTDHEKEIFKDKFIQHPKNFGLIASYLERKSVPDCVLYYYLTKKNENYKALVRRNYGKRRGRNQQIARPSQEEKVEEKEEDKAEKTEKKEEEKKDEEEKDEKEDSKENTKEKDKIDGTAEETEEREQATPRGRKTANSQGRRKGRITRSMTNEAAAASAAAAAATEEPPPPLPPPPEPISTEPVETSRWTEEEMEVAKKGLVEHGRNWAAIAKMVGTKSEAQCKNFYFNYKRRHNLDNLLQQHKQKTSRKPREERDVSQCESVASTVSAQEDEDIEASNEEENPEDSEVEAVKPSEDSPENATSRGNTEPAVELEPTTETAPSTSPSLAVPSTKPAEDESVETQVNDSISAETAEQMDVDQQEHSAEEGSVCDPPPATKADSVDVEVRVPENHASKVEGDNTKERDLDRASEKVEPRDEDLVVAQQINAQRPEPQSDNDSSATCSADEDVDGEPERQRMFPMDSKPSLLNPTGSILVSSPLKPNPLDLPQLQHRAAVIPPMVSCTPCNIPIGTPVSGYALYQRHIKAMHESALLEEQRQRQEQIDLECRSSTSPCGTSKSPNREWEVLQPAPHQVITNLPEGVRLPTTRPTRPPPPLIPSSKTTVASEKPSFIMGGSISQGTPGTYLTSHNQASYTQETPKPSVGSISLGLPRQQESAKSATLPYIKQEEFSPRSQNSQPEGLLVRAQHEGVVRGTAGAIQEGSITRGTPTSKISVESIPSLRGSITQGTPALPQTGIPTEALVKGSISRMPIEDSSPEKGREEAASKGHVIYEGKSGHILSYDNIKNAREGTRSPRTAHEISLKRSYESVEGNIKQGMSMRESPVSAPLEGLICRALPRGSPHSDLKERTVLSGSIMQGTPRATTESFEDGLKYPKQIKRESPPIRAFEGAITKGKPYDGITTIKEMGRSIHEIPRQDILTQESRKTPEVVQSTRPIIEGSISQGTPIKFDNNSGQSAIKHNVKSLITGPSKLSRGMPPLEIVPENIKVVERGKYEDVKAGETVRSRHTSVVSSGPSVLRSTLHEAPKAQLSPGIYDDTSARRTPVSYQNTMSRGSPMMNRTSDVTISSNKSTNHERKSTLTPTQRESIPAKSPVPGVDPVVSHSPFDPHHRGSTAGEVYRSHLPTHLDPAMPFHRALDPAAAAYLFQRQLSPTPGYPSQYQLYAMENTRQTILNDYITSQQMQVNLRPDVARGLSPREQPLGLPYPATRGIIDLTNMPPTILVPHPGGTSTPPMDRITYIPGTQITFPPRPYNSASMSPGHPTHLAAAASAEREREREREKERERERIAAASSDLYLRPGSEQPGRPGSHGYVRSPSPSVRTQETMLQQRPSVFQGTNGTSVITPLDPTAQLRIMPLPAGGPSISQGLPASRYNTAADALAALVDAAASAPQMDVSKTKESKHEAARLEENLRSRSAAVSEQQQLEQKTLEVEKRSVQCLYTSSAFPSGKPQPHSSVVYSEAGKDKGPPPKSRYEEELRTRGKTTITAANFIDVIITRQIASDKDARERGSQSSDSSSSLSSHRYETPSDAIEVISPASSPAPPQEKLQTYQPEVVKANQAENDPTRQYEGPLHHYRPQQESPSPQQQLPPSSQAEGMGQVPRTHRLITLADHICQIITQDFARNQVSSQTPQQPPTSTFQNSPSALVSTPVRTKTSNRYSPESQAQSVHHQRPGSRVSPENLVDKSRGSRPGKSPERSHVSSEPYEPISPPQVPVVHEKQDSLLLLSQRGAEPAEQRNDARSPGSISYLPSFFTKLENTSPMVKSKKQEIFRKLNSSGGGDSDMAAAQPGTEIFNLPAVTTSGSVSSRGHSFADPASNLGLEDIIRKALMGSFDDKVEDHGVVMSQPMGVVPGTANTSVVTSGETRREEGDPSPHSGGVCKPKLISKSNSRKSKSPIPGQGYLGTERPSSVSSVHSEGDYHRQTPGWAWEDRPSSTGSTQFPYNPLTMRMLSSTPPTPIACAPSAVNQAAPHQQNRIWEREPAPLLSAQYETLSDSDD

Histone deacetylase 2 = Histone deacetylase 2 (Homo sapiens, UniProt Q92769); test: Inhibition of recombinant His-tagged HDAC2 (1 to 488) (unknown origin) using MAL as substrate incubated for 3 hrs prior to substrate addition measured after 60 mins by fluorescence plate reader analysis
Sequence of Histone deacetylase 2 (Q92769 whole entry): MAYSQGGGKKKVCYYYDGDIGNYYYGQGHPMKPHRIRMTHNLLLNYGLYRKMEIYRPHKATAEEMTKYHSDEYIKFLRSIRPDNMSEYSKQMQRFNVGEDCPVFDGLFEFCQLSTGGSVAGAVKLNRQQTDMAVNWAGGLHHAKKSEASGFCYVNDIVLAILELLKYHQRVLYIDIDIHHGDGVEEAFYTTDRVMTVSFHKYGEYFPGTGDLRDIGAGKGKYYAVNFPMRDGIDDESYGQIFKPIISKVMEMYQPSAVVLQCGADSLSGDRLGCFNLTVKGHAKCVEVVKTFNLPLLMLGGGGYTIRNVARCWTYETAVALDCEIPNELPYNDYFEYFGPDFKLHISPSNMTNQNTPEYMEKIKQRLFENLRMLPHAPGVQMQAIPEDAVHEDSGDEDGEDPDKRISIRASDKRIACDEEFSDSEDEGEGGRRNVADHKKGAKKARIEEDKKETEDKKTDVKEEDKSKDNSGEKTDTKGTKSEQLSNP

[2] = target: T2, Protein deacetylase HDAC6 (Homo sapiens, UniProt Q9UBN7); test: Inhibition of recombinant His-tagged HDAC6 (unknown origin) using Fluor-de-Lys SIRT1 as substrate incubated for 3 hrs prior to substrate addition measured after 60 mins by fluorescence plate reader analysis
T2 sequence (Q9UBN7 whole entry): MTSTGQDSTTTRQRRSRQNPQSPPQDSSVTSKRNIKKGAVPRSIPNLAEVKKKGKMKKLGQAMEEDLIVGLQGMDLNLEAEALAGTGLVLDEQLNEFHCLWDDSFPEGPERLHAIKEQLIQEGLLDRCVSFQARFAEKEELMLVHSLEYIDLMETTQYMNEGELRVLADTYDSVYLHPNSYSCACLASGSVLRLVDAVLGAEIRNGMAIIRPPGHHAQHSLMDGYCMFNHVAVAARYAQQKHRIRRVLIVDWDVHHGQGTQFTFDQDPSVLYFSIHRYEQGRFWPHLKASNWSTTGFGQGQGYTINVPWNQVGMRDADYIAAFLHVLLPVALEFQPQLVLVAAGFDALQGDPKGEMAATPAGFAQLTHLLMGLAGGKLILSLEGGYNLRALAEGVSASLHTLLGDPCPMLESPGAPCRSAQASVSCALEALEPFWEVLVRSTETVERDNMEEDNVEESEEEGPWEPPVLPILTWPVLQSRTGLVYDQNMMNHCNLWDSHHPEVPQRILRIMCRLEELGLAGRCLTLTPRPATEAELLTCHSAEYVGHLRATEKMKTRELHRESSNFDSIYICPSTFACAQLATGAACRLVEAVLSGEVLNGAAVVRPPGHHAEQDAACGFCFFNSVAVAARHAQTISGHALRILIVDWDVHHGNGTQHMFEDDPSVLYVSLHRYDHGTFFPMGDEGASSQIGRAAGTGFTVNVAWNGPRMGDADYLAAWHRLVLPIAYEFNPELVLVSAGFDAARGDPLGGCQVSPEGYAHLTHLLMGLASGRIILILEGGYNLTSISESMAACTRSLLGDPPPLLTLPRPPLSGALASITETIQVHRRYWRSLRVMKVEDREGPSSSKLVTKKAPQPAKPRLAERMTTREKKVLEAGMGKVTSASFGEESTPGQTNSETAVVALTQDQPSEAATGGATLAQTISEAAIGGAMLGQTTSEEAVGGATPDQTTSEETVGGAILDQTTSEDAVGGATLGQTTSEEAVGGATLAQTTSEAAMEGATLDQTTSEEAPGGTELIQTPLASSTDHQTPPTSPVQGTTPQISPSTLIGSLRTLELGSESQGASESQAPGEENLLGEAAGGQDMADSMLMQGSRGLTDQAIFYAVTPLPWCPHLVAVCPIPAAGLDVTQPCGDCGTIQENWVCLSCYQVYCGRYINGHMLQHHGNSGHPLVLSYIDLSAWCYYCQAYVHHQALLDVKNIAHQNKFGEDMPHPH

MCF7 = test: Cytotoxicity against human MCF7 cells assessed as growth inhibition by measuring cellular ATP level after 72 hrs by cell-titer glo assay; assay type: functional, cell-based; settings: MCF7, 72 h
DU-145 = test: Cytotoxicity against human DU145 cells assessed as growth inhibition by measuring cellular ATP level after 72 hrs by cell-titer glo assay; assay type: functional, cell-based; settings: DU-145, 72 h
HCT-116 = test: Cytotoxicity against human HCT116 cells assessed as growth inhibition by measuring cellular ATP level after 72 hrs by cell-titer glo assay; assay type: functional, cell-based; settings: HCT-116, 72 h
A549 = test: Cytotoxicity against human A549 cells assessed as growth inhibition by measuring cellular ATP level after 72 hrs by cell-titer glo assay; assay type: functional, cell-based; settings: A549, 72 h
Histone deacetylase 1 = Histone deacetylase 1 (Homo sapiens, UniProt Q13547); test: Inhibition of recombinant C-terminal FLAG-tagged HDAC1 (unknown origin) expressed in Escherichia coli BL21 using MAL as substrate incubated for 1 hr prior to substrate addition measured after 60 mins by fluorescence plate reader analysis
Sequence of Histone deacetylase 1 (Q13547 whole entry): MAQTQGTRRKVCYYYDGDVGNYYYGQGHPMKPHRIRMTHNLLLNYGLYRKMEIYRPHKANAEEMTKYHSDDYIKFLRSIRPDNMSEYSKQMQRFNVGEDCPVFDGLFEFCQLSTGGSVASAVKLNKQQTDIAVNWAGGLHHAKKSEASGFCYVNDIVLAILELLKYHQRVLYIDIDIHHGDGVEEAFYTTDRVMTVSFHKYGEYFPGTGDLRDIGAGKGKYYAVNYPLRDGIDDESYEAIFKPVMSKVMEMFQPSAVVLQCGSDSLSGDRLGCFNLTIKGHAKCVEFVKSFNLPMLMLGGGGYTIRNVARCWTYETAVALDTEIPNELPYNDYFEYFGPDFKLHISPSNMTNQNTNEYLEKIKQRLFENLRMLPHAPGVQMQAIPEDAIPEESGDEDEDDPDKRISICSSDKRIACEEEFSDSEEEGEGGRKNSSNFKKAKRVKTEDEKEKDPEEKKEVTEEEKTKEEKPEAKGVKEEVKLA

IC50 (Histone deacetylase 8) [µM]	IC50 [1] [nM]	IC50 (Histone deacetylase 2) [nM]	IC50 [2] [µM]	IC50 (Histone deacetylase 1) [nM]	SMILES	IC50 (MCF7) [µM]	IC50 (DU-145) [µM]	IC50 (HCT-116) [µM]	IC50 (A549) [µM]
1.4	23	111	–	–	Nc1ccccc1NC(=O)c1ccc(CNC2=NC[C@@H](c3ccccc3)S2)cc1	–	–	–	–
22.7	83	260	> 20	–	CC(=O)N1C(NCc2ccc(C(=O)Nc3ccccc3N)cc2)=NC(=O)C1Cc1ccccc1 (racemic)	–	–	–	–
13	30	66	> 20	–	Nc1ccccc1NC(=O)c1ccc(CNC2=NC(=O)C(Cc3ccccc3)N2)cc1 (racemic)	> 50	> 50	16.6	> 50
> 20	890	920	> 20	–	Nc1ccccc1NC(=O)c1ccc(CSC2=N[C@@H](Cc3c[nH]c4ccccc34)CS2)cc1	9.91	2.8	3.64	9.53
> 20	> 20000	> 20000	> 20	–	Nc1cc(C(=O)O)ccc1NC(=O)c1ccc(CNc2nccc(-c3cccnc3)n2)cc1	–	–	–	–
14.9	287	425	–	–	Nc1ccccc1NC(=O)c1ccc(CNC2=N[C@H](c3ccccc3)[C@@H](c3ccccc3)S2)cc1	–	–	–	–
15	16	44	–	180	Nc1ccccc1NC(=O)c1ccc(CNC2=N[C@@H](c3ccc(O)cc3)CS2)cc1	–	–	–	–
> 20	> 20000	> 20000	> 20	–	CC(C)(C)[Si](C)(C)OCc1ccc(NC(=O)c2ccc(CNc3nccc(-c4cccnc4)n3)cc2)c(N)c1	–	–	–	–
10.7	79	56	> 20	370	Nc1ccccc1NC(=O)c1ccc(CN=C2N[C@H](c3ccccc3)CS2)cc1	–	–	–	–
24.3	70	116	> 20	–	CC(=O)N1C(NCc2ccc(C(=O)Nc3ccccc3N)cc2)=NC(=O)C1Cc1c[nH]c2ccccc12 (racemic)	–	–	–	–
> 20	> 20000	16700	> 20	–	Nc1cc(-c2ccccc2)ccc1NC(=O)c1ccc(CNc2nccc(-c3cccnc3)n2)cc1	–	–	–	–
5.16	63	440	> 20	–	Nc1ccccc1NC(=O)c1ccc(CSC2=N[C@@H](c3ccccc3)CS2)cc1	–	–	–	–
34.9	52	104	> 20	920	Nc1ccccc1NC(=O)c1ccc(CNC2=N[C@@H](Cc3ccccc3)CS2)cc1	3.09	5.45	1.95	6.37
> 20	> 20000	> 20000	> 20	–	Nc1cc(CO)ccc1NC(=O)c1ccc(CNc2nccc(-c3cccnc3)n2)cc1	–	–	–	–
> 20	719	1430	> 20	–	Nc1cc(O)ccc1NC(=O)c1ccc(CNc2nccc(-c3cccnc3)n2)cc1	–	–	–	–
> 20	509	580	> 20	–	Nc1ccccc1NC(=O)c1ccc(CSC2=N[C@@H](Cc3ccccc3)CS2)cc1	–	–	–	–
> 20	111	248	> 20	–	COc1ccc(NC(=O)c2ccc(CNc3nccc(-c4cccnc4)n3)cc2)c(N)c1	–	–	–	–
> 20	104	78	> 20	190	Nc1ccccc1NC(=O)c1ccc(CNC2=NC(=O)C(Cc3c[nH]c4ccccc34)N2)cc1 (racemic)	–	–	–	–
> 20	630	> 20000	> 20	–	Nc1cc2ccccc2cc1NC(=O)c1ccc(CNc2nccc(-c3cccnc3)n2)cc1	–	–	–	–
27.2	40	48	> 20	500	CC(C)(C)OC(=O)N1C(NCc2ccc(C(=O)Nc3ccccc3N)cc2)=NC(=O)C1Cc1c[nH]c2ccccc12 (racemic)	–	–	–	–
12.6	388	538	–	–	Nc1ccccc1NC(=O)c1ccc(CN=C2N[C@@H](c3ccccc3)[C@H](c3ccccc3)S2)cc1	–	–	–	–
–	–	–	–	–	O=C(CCCCCCC(=O)Nc1ccccc1)NO [VORINOSTAT]	2.29	–	–	2.27
12.7	36	82	> 20	410	Nc1ccccc1NC(=O)c1ccc(CN=C2N[C@H](Cc3ccccc3)CS2)cc1	–	–	–	–
> 20	4720	> 20000	> 20	–	Nc1cc(Br)ccc1NC(=O)c1ccc(CNc2nccc(-c3cccnc3)n2)cc1	–	–	–	–
> 20	> 20000	> 20000	> 20	–	Nc1cc(C(=O)OCc2ccccc2)ccc1NC(=O)c1ccc(CNc2nccc(-c3cccnc3)n2)cc1	–	–	–	–
2.3	12	81	–	550	Nc1ccccc1NC(=O)c1ccc(CN=C2NC[C@H](c3ccccc3)S2)cc1	–	–	–	–
